Article PMC3574212 (Journal of medicinal chemistry, 2013)
Entries after “also recorded” stand apart in the source; their conditions may differ.

Assays:
EPAC2 [1] = molecular target: T1, EPAC2 (Mus musculus, UniProt Q9EQZ6); test: 8-NBD-cAMP competition binding assay; settings: for Relative Potency (RA): RA = IC50, cAMP/ IC50, compound
T1 sequence (Q9EQZ6 1-1011): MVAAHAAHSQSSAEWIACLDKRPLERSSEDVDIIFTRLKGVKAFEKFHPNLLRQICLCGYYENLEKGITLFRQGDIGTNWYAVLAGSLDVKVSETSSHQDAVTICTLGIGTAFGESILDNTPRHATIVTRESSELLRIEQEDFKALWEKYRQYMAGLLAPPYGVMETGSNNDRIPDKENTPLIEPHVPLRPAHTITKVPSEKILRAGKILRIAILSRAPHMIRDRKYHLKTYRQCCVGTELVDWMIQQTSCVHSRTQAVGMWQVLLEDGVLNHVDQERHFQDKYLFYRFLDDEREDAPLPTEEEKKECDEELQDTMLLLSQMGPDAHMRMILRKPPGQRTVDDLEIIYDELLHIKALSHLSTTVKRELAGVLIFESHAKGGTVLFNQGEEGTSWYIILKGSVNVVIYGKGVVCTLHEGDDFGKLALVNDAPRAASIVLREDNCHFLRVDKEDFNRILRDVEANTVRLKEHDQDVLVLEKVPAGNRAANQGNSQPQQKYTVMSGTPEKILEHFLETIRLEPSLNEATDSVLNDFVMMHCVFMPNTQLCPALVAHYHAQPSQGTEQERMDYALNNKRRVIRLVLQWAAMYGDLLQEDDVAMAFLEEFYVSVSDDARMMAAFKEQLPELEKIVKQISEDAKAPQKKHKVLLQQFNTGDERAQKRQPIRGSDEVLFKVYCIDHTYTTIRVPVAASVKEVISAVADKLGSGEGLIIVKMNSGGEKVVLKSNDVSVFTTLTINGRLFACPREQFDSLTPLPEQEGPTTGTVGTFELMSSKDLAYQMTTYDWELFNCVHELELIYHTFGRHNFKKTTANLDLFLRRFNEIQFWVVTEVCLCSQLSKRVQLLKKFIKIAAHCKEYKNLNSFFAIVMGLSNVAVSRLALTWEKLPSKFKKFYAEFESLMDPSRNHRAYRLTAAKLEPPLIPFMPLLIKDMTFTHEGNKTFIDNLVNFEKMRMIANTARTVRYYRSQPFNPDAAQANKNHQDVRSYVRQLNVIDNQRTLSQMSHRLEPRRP

EPAC1 [2] = molecular target: T2, EPAC1 (Homo sapiens, UniProt O95398); settings: cAMP-mediated EPAC1 GEF activity; ref 18b; cited from earlier work
T2 sequence (O95398 1-923): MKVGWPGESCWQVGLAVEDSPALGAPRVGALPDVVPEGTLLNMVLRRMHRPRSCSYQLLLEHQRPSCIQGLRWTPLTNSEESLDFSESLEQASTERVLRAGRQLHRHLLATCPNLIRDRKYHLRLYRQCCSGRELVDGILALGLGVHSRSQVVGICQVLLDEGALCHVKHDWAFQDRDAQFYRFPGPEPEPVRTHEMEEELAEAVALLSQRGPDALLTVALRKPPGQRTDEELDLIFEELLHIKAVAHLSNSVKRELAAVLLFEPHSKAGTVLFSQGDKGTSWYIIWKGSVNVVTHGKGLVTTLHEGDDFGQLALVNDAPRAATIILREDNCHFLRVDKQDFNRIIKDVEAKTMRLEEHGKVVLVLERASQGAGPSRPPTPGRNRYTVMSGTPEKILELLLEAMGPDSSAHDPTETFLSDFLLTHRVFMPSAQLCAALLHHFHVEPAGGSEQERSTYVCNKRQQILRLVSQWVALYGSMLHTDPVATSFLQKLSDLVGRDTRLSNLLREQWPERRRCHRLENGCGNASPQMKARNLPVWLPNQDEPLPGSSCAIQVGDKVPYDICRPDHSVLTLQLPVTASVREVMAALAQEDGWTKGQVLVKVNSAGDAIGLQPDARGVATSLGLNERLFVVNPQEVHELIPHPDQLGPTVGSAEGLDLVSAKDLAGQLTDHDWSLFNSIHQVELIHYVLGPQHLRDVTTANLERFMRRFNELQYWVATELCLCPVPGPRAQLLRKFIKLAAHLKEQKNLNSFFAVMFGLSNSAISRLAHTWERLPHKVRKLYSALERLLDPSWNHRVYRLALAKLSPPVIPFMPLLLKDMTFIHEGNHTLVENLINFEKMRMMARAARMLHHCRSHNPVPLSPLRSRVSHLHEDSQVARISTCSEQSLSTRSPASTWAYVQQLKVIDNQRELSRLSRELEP

type I PKA holoenzyme = test: Counter screening assay, type I PKA holoenzyme kinase activity; format: biochemical; settings: 25 µM compound, 0.1 mM cAMP
EPAC1 [3] = molecular target: T2, EPAC1; test: cAMP-mediated EPAC1 GEF activity; format: biochemical; settings: 25 µM compound in the presence of 25 µM cAMP
type II PKA holoenzyme = test: Counter screening assay, type II PKA holoenzyme kinase activity; format: biochemical; settings: 25 µM compound, 0.1 mM cAMP
EPAC2 [4] = molecular target: T1, EPAC2; test: cAMP-mediated EPAC2 GEF activity; format: biochemical; settings: 25 µM compound in the presence of 25 µM cAMP
HEK293/EPAC2-FL cells = HEK293/EPAC2-FL cells (Homo sapiens, UniProt Q8WZA2); test: FRET-based live-cell assay for EPAC2 activation; settings: 10 µM 20i pretreatment, 10 µM 007-AM
Chain of HEK293/EPAC2-FL cells (Q8WZA2 whole entry): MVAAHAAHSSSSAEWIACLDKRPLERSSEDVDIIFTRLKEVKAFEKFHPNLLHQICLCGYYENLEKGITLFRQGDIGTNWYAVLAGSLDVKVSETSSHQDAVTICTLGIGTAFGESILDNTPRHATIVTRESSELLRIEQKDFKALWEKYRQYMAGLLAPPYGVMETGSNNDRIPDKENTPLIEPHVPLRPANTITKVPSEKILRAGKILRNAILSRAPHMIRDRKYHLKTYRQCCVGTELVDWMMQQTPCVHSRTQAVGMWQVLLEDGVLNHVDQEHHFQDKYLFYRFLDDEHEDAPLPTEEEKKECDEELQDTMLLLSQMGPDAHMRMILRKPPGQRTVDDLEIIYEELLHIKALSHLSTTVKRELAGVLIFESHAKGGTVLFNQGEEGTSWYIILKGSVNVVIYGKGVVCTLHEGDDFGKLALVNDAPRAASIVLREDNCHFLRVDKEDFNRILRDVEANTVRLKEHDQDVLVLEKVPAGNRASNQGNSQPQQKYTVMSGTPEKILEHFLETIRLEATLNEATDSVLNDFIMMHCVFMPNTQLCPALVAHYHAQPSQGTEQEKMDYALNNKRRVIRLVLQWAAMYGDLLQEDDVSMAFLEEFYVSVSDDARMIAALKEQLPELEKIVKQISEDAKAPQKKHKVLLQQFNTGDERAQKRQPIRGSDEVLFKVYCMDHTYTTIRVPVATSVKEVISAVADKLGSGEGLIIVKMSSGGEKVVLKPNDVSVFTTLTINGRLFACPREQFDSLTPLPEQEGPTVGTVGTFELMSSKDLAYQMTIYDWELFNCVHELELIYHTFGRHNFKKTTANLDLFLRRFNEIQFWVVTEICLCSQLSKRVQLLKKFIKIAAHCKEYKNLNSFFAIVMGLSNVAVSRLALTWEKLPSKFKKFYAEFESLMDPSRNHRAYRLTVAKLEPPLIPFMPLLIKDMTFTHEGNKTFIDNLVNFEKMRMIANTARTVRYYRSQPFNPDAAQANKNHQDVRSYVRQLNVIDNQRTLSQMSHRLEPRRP

HEK293/EPAC1-FL = molecular target: T3, HEK293/EPAC1-FL (Homo sapiens, UniProt O95398); test: FRET-based live-cell assay for EPAC1 activation; settings: 10 µM 20i, 10 µM 007-AM
T3 sequence (O95398 1-923): T2 sequence (O95398 1-923)

[5] = tested on: HEK293 cells stably expressing the PKA sensor AKAR3; test: FRET-based live-cell assay for PKA; settings: 10 µM 20i, 10 µM 8-Br-cAMP-AM

Relative Potency (RA) (EPAC2 [1]) | fold more potent than cAMP (EPAC2 [1]; 8-NBD-cAMP competition in binding EPAC2) | Effect on cAMP-induced type I PKA holoenzyme activation (type I PKA holoenzyme) | Effect on cAMP-induced type II PKA holoenzyme activation (type II PKA holoenzyme) | SMILES | Selectivity EPAC2 vs EPAC1 of HTS hits (EPAC1 [2]) | Inhibition of EPAC1-mediated Rap1-GDP exchange activity (EPAC1 [3]) | Inhibition of EPAC2 GEF activity (EPAC2 [4]) | Block of 007-AM induced decrease of FRET (EPAC2 activation) (HEK293/EPAC2-FL cells) | Block of 007-AM induced decrease of FRET (EPAC1 activation) (HEK293/EPAC1-FL) | Inhibition of 8-Br-cAMP-AM induced PKA activation (AKAR3 FRET) [5]
2.2 |  |  |  | Nc1ccc(Nc2ccc(N)cc2S(=O)(=O)O)cc1 [Compound 2] | not exclusively specific for EPAC2 |  |  |  |  | 
100 | about 100 fold | not to significantly alter | not to significantly alter | Cc1cc(C)c(Nc2cc(Cl)ccc2Cl)c(C)c1 [Compound 14c, (2,5-Dichlorophenyl)-(2,4,6-trimethylphenyl)amine] |  | no inhibition; also recorded: not to inhibit | inhibit EPAC2 GEF activity to basal levels |  |  | 
 |  | not to significantly alter | not to significantly alter | Cc1cc(C)c(S(=O)(=O)n2cc(C)cc2C)c(C)c1 [Compound 20i, 2,4-Dimethyl-1-(2,4,6-trimethylbenzenesulfonyl)-1H-pyrrole] |  | no inhibition; also recorded: not to inhibit | inhibit EPAC2 GEF activity to basal levels | fully blocked; also recorded: blocked EPAC2 | incapable of blocking; also recorded: not EPAC1 activation | not inhibited; also recorded: did not affect PKA activation
